This note sets out measurements from ChEMBL document CHEMBL1157256, “Junceellolides J-L, 11,20-epoxybriaranes from the gorgonian coral Junceella fragilis” (2006).

By inhibition is commonly meant the change of the read-out against control, counted positive when it falls.

The subject of one test is Neutrophil. The test is described as follows: Inhibition of FMLP/cytochalasin B-stimulated elastase release in human neutrophils at 10 ug/mL relative to control. In kind it is functional.
Test [1] can be described thus: Antioxidant activity in human neutrophils assessed as inhibition of superoxide generation at 10 ug/mL by colorimetric method relative to control. In kind it is functional. Particulars: Neutrophil.

Take `CC(=O)O[C@H]1CC[C@]2(CO2)[C@@H]2[C@H](OC(C)=O)[C@]3(O)[C@@H](C)C(=O)O[C@H]3[C@@H](O)[C@](C)(O)CC[C@H](OC(C)=O)[C@@]12C` [JUNCEELLOLIDE L]: the inhibition at 10 µg/mL in the test on Neutrophil amounted to 5.52%; in test [1] it was 5.55%.

`CC(=O)O[C@H]1CC/C(C)=C\[C@@H]2OC(=O)[C@H](C)[C@@]2(O)[C@@H](OC(C)=O)[C@H]2[C@]3(CC[C@H](OC(C)=O)[C@]12C)CO3` [JUNCEELLOLIDE K]: the inhibition at 10 µg/mL in the test on Neutrophil was 15%; in test [1] it was 13.9%.

Consider `CC(=O)O[C@H]1CC/C(C)=C\[C@@H]2OC(=O)[C@H](C)[C@@]2(O)[C@@H](OC(C)=O)[C@H]2[C@@]3(CC[C@H](OC(C)=O)[C@]12C)CO3`, for which the inhibition at 10 µg/mL in the test with Neutrophil is 15.4%; in test [1], 22.6%.

As for `CC(=O)O[C@H]1CC[C@@]2(CO2)[C@@H]2[C@H](OC(C)=O)[C@]3(O)[C@@H](C)C(=O)O[C@H]3[C@@H]3O[C@]3(C)CC[C@H](OC(C)=O)[C@@]12C` [JUNCEELLOLIDE J], the values for the inhibition at 10 µg/mL (in the test on Neutrophil; in test [1]) were 5.17% and 7.66%, respectively.
